# No end group written: not given here.
# Columns and labels:
# [1] = target: T1, Mas receptor (Homo sapiens, UniProt P04201); assay: Calcium flux in CHO-K1 cells co-transfected with Mas receptor and Gα16; assay type: cell-based; conditions: dose response
# T1 construct: expressed in transfected cells; host or cells: CHO-K1 (ATCC-CCL-61), transient co-transfection
# T1 sequence (P04201 1-325): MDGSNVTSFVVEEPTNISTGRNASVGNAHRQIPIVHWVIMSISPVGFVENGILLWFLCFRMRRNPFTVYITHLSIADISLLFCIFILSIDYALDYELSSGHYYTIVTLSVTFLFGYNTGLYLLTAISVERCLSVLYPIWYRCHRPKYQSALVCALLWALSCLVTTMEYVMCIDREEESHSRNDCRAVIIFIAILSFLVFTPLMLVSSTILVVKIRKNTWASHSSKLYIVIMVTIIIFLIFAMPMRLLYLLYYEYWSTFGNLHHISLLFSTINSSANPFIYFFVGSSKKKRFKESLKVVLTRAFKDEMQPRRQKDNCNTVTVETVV
# Protocol: The assay was carried out in CHO cells were transiently transfected with the GPCR of choice, by utilizing the promiscuous Gα16 to divert signaling to the Gq pathway, thus enabling readout of GPCR activation by testing for Calcium flux as described by Liu et al 2003 (Biomol Screen 8, 39-49).
# All the peptides thus obtained were tested for their ability to change calcium flux in CHO—K1 cells (ATCC-CCL-61) transiently co-transfected with an expression vector containing the GPCR of choice and expression vector containing the Gα16 encoding cDNA. Expression constructs containing cDNA clones for MrgX1, MrgX2, Mas or FPRL1 were commercially obtained in one of the following expression vectors: pcDNA3.1, pCMV6, or MO2.
# Transient transfections were performed using CHO—K1 cells as host cells. Cells (12 million) were plated into T75 flasks on the day preceding transfection. Cells were transfected with the appropriate GPCR expression vector and with a vector expressing Gα16 using a lipid-based reagent, MTI, according to the manufacturer's recommendation. Cells were transfected for 5 hours, then re-plated into 96-well dishes (60,000 cells per well) and grown overnight.
# On the day of the experiment, cells were loaded with Fluo4-NW (Invitrogen) according to the manufacturer's recommendation. Plates were loaded into a FlexStation™ (Molecular Devices) plate reader and fluorescence was monitored. Seventeen seconds following initiation of reading, cells were stimulated with the indicated agonist/compound at final concentration of 1 μM. Each 96 well plate contained cells transfected with one GPCR expression vector and each of the examined peptides was tested in triplicate.
# We defined a hit as a peptide which elicited a clear and distinct increase in intracellular calcium that is clearly visible and statistically significant upon examination of the calcium trace for at least two repeats. The criterion for statistical significance was a p-value lower than 0.001 in a t-test comparing the levels of calcium before and after peptide addition.
# Based on dose response experiments, EC50 best fit values were calculated by non-linear regression of sigmoidal dose-response curves, using Prism version 4 (GraphPad Software Inc., San Diego, Calif.). The formulae for the sigmoidal dose-response curves was defined as Y=Bottom+(Top−Bottom)/(1+10^ (LogEC50−X)*HillSlope))
# The ability of Peptides to change calcium flux was examined in CHO—K1 cells co-transfected with Mas receptor and Gα16.
# [2] = tested on: aortic rings from Wistar rat; assay: Vasorelaxant activity in phenylephrine pre-contracted aortic rings
# From the text: Male Wistar rats of the age of 13-14 weeks (body weight: 250 to 300 g) were used. The rats were exposed to light-dark cycle of 12 hs (day—06:00 to 18:00; night—18:00 to 06:00) controlled by timer. Rats were killed by decapitation and exsanguination and tissues were rapidly removed.
# Rings (3-4 mm) from the descending thoracic aorta, free of adipose and connective tissue, were set up in gassed (95% O2 and 5% CO2) Krebs-Henseleit solution (mmol/L): NaCl 110.8, KCl 5.9, NaHCO3 25.0, MgSO4 1.07, CaCl2 2.49, NaH2PO4 2.33 and glucose 11.51, at 37° C., under a tension of 1.0 g, for 1 hour to equilibrate. The presence of functional endothelium was assessed by the ability of Acetylcholine (1 μM) to induce more than 70% relaxation of vessels pre-contracted with phenylephrine (0.3 μM) (Lemos et al., 2005). When necessary, the endothelium was removed by rubbing the intimal surface with a wooden stick. Mechanical activity, recorded isometrically by a force transducer (Panlab, model number TR1210, Spain), was fed to an amplifier-recorder (Powerlab 4/20, ADInstruments, Inc.) and to a personal computer equipped with an analogue-to-digital converter board (AD16JR; World Precision Instruments, Inc.), using CVMS data acquisition/recording software (World Precision Instruments, Inc.).
# The vasorelaxant activity of peptides —P61_S (SEQ ID NO:10), P61 (SEQ ID NO.9)-dimer (P61_D), P33_V (SEQ ID NO:7) and P33 (SEQ ID NO:6)-dimer (P33_D) were measured in vessels (N=5-8) with or without functional endothelium pre-contracted to the same tension level (approximately 1.5 g of tension) induced by submaximal concentrations of phenylephrine (0.01 μM). For comparison, the effect of Ang-(1-7) was also tested (N=4)
# P61_S (SEQ ID NO:10), P61 (SEQ ID NO9)-dimer (P61_D), P33_V (SEQ ID NO:7) or P33 (SEQ ID NO:6)-dimer (P33_D) were added in increasing cumulative concentrations (0.0001 to 1 μM) once the response to phenylephrine had stabilized (FIG. 28). In order to verify the participation of endothelium-derived products in the relaxant effect of peptides, experiments were performed in the presence of 100 μM N′-Nitro-L-Arginine Methyl Ester-[L-NAME]—a nonselective inhibitor of nitric oxide synthase. In experiments performed in the presence of L-NAME, vessels were pre-contracted with 0.03 μM of phenylephrine, to achieve the same tension level as the others. L-NAME was added to the bath 20 min prior to the addition of phenylephrine.
# Results are presented as mean±SEM. Two-way analysis of variance (ANOVA) with Bonferroni multiple comparison post-test was used to compare concentration response curves obtained in aortic rings. The vasodilator effect of P61_S (SEQ ID NO:10), P61 (SEQ ID N09)-dimer (P61_D), P33_V (SEQ ID NO:7), P33 (SEQ ID NO:6)-dimer (P33_D) and Ang-(1-7) were expressed as percentage decrease in maximal contraction induced by phenylephrine. All statistical analyses were considered significant when p<0.05.
sequence,measurement,setting,value
FLGYCIYLNRKRRGDPAFKRRLRD (also: dimer via cysteine; listed as Homo sapiens) [Peptide P61_dimer],"ability to induce calcium flux, P61-related peptides compared",[1],more potent than the monomeric P61 peptides
same,vasodilator effect in the presence of L-NAME,"[2]; 100 μM L-NAME, NO synthase inhibitor",markedly inhibited
same,vasodilator effect in the absence of functional endothelium,[2]; endothelium-denuded vessels,abolished
same,Maximal values for the relaxant effect (Emax),"[2]; vessels with endothelium, 0.0001 to 1 μM cumulative, mean±SEM",20.45±5.11%

# From patent US8349801B2, “Peptide ligands for G-protein coupled receptors” (priority 2006, dated 2013)
